Data taken from patent US12545639B2, “3-substituted phenylamidine compounds, preparation and use thereof” (PI INDUSTRIES LTD., priority 2019, dated 2026).

Assays:
[1] = test system: Septoria lycopersici/Corynespora cassicola (CORYCA); assay: Septoria lycopersici/Corynespora cassicola (CORYCA) (leaf spot of tomato) in vitro test, radial growth on potato dextrose agar; assay type: cell-based; settings: 168 h, 300 ppm in potato dextrose agar, 25° C., 70% relative humidity, seven days, read-out: control compared to the untreated check (radial growth)
Phakopsora pachyrhizi = Phakopsora pachyrhizi test in soybean, preventive, in vivo on plants; settings: in Glycine max, read-out: Efficacy (% control), disease severity compared to the untreated check
Alternaria solani = Alternaria solani (early blight of tomato/potato) in vitro test, radial growth on potato dextrose agar; assay type: cell-based; settings: 168 h, 300 ppm in potato dextrose agar, 25° C., 60% relative humidity, seven days, read-out: control compared to the untreated check (radial growth)
Fusarium culmorum = Fusarium culmorum (foot rot of cereals) in vitro test, radial growth on potato dextrose agar; assay type: cell-based; settings: 168 h, 300 ppm in potato dextrose agar, 25° C., 60% relative humidity, seven days, read-out: control compared to the untreated check (radial growth)
Outline: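 Compound in 0.3% DMSO mixed into potato dextrose agar, plates seeded with a 5 mm mycelial disc from an actively growing virulent culture. After seven days at 25° C and 60% relative humidity, radial growth was measured against untreated control.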

Pyricularia oryzae [2] = assay: microbe, parasite or virus in culture; assay type: cell-based; settings: 168 h, read-out: control compared to the untreated check (radial growth)
Colletotrichum capsici = Colletotrichum capsici (anthracnose) in vitro test, radial growth on potato dextrose agar; assay type: cell-based; settings: Colletotrichum truncatum, 168 h; 300 ppm in potato dextrose agar; 25° C., 60% relative humidity, seven days; read-out: control compared to the untreated check (radial growth)
Rhizoctonia solani = Rhizoctonia solani (rice sheath blight/potato black scurf) in vitro test, radial growth on potato dextrose agar; assay type: cell-based; settings: 168 h, 300 ppm in potato dextrose agar, 25° C., 60% relative humidity, seven days, read-out: control compared to the untreated check (radial growth)
Pyricularia oryzae [3] = assay: whole plant or invertebrate; assay type: in vivo, Pyricularia oryzae on rice; settings: read-out: Efficacy (% control), disease severity compared to the untreated check
Botrytis cinerea = Botrytis cinerea (gray mold) in vitro test, radial growth on potato dextrose agar; assay type: cell-based; settings: 168 h, 300 ppm in potato dextrose agar, 22° C., 90% relative humidity, seven days, read-out: control compared to the untreated check (radial growth)

CCN(C)C=Nc1cc(C)cc(Cc2ccc(C(F)(F)F)cc2)c1Cl [Compound 51, N′-(2-chloro-5-methyl-3-(4-(trifluoromethyl)benzyl)phenyl)-N-ethyl-N-methylformimidamide]
≥ 70%: inhibition of growth at 300 ppm [1] | pest or weed control at 500 ppm (Phakopsora pachyrhizi) | inhibition of growth at 300 ppm (Alternaria solani) | inhibition of growth at 300 ppm (Fusarium culmorum) | inhibition of growth at 300 ppm (Pyricularia oryzae [2]) | inhibition of growth at 300 ppm (Colletotrichum capsici) | inhibition of growth at 300 ppm (Rhizoctonia solani) | pest or weed control at 500 ppm (Pyricularia oryzae [3]) | inhibition of growth at 300 ppm (Botrytis cinerea)

CCN(C)C=Nc1cc(Cl)cc(N(C)c2ccccc2F)c1C [Compound 178, N′-(5-chloro-3-((2-fluorophenyl)(methyl)amino)-2-methylphenyl)-N-ethyl-N-methylformimidamide]
≥ 70%: pest or weed control at 500 ppm (Phakopsora pachyrhizi) | inhibition of growth at 300 ppm (Alternaria solani) | inhibition of growth at 300 ppm (Pyricularia oryzae [2]) | inhibition of growth at 300 ppm (Rhizoctonia solani) | pest or weed control at 500 ppm (Pyricularia oryzae [3]) | inhibition of growth at 300 ppm (Botrytis cinerea)

CCN(C)C=Nc1cc(C)cc(Cc2ccc(OC(F)(F)F)cc2)c1Cl [Compound 52, N′-(2-chloro-5-methyl-3-(4-(trifluoromethoxy)benzyl)phenyl)-N-ethyl-N-methylformimidamide]
≥ 70%: inhibition of growth at 300 ppm [1] | pest or weed control at 500 ppm (Phakopsora pachyrhizi) | inhibition of growth at 300 ppm (Alternaria solani) | inhibition of growth at 300 ppm (Fusarium culmorum) | inhibition of growth at 300 ppm (Pyricularia oryzae [2]) | inhibition of growth at 300 ppm (Rhizoctonia solani) | pest or weed control at 500 ppm (Pyricularia oryzae [3]) | inhibition of growth at 300 ppm (Botrytis cinerea)

CCN(C)C=Nc1cc(C)cc(Cc2ccc(F)c(Cl)c2)c1Cl [Compound 54, N′-(2-chloro-3-(3-chloro-4-fluorobenzyl)-5-methylphenyl)-N-ethyl-N-methylformimidamide]
≥ 70%: inhibition of growth at 300 ppm [1] | pest or weed control at 500 ppm (Phakopsora pachyrhizi) | inhibition of growth at 300 ppm (Alternaria solani) | inhibition of growth at 300 ppm (Fusarium culmorum) | inhibition of growth at 300 ppm (Pyricularia oryzae [2]) | inhibition of growth at 300 ppm (Rhizoctonia solani) | pest or weed control at 500 ppm (Pyricularia oryzae [3]) | inhibition of growth at 300 ppm (Botrytis cinerea)

CCN(C)C=Nc1cc(C)cc(NCc2ccccc2C(F)(F)F)c1Cl [Compound 181, N′-(2-chloro-5-methyl-3-((2-(trifluoromethyl)benzyl)amino)phenyl)-N-ethyl-N-methylformimidamide]
≥ 70%: pest or weed control at 500 ppm (Phakopsora pachyrhizi) | inhibition of growth at 300 ppm (Alternaria solani) | inhibition of growth at 300 ppm (Pyricularia oryzae [2]) | inhibition of growth at 300 ppm (Colletotrichum capsici) | inhibition of growth at 300 ppm (Rhizoctonia solani) | pest or weed control at 500 ppm (Pyricularia oryzae [3]) | inhibition of growth at 300 ppm (Botrytis cinerea)

CCN(C)C=Nc1cc(C)cc(Cc2cc(C)cc(C)c2)c1Cl [Compound 55, N′-(2-chloro-3-(3,5-dimethylbenzyl)-5-methylphenyl)-N-ethyl-N-methylformimidamide]
≥ 70%: inhibition of growth at 300 ppm [1] | pest or weed control at 500 ppm (Phakopsora pachyrhizi) | inhibition of growth at 300 ppm (Alternaria solani) | inhibition of growth at 300 ppm (Fusarium culmorum) | inhibition of growth at 300 ppm (Pyricularia oryzae [2]) | inhibition of growth at 300 ppm (Rhizoctonia solani) | pest or weed control at 500 ppm (Pyricularia oryzae [3]) | inhibition of growth at 300 ppm (Botrytis cinerea)

CCN(C)C=Nc1cc(Cl)cc(Cc2cccc(C)c2)c1C [Compound 94, N′-(5-chloro-2-methyl-3-(3-methylbenzyl)phenyl)-N-ethyl-N-methylformimidamide]
≥ 70%: inhibition of growth at 300 ppm [1] | pest or weed control at 500 ppm (Phakopsora pachyrhizi) | inhibition of growth at 300 ppm (Alternaria solani) | inhibition of growth at 300 ppm (Pyricularia oryzae [2]) | inhibition of growth at 300 ppm (Colletotrichum capsici) | inhibition of growth at 300 ppm (Rhizoctonia solani) | pest or weed control at 500 ppm (Pyricularia oryzae [3]) | inhibition of growth at 300 ppm (Botrytis cinerea)

CCN(C)C=Nc1cc(C)cc(Cc2ccccc2OC(F)(F)F)c1Cl [Compound 50, N′-(2-chloro-5-methyl-3-(2-(trifluoromethoxy)benzyl)phenyl)-N-ethyl-N-methylformimidamide]
≥ 70%: inhibition of growth at 300 ppm [1] | pest or weed control at 500 ppm (Phakopsora pachyrhizi) | inhibition of growth at 300 ppm (Alternaria solani) | inhibition of growth at 300 ppm (Pyricularia oryzae [2]) | inhibition of growth at 300 ppm (Colletotrichum capsici) | inhibition of growth at 300 ppm (Rhizoctonia solani) | pest or weed control at 500 ppm (Pyricularia oryzae [3]) | inhibition of growth at 300 ppm (Botrytis cinerea)
